Source: patent US20140057915A1, “KINASE INHIBITORS” (TOPIVERT PHARMA LIMITED, priority 2012, published 2014)
Like-named read-outs stand apart in the source and are kept apart here.

What was measured:
[1] = system: intestinal mucosa biopsies from the inflamed regions of the colon of IBD patients; test: Human biopsy assay (cytokine release from intestinal mucosa biopsies of IBD/UC patients); type: cell-based; details: in vitro
Method: Intestinal mucosa biopsies are obtained from the inflamed regions of the colon of IBD patients. The biopsy material is cut into small pieces (2-3 mm) and placed on steel grids in an organ culture chamber at 37° C. in a 5% CO2/95% O2 atmosphere in serum-free media. DMSO control or test compounds at the desired concentration are added to the tissue and incubated for 24 hr in the organ culture chamber. The supernatant is harvested for determination of IL-6, IL-8, IL-1β and TNFα levels by R&D ELISA.

BDF1 mice = test: TNBS-induced colitis in mice; type: in vivo, mouse; details: for inflammatory cell infiltrate in the reticular and lamina propria zones / activity in the in vivo model of colonic inflammation (histopathology analysis): TNBS; for activity in the in vivo model of colonic inflammation (histopathology analysis): 2 days; for ulcer grade and epithelial repair compared to the vehicle control: dosed orally at 5 mg/kg
Method: (C) TNBS-Induced Colitis in Mice […] On Day 0 of the study TNBS (200 μL) is administered intra-colonically via a plastic catheter followed by BID dosing of the vehicle, reference or test compound for 2 or 4 days. During the study animals are weighed every day and stool observations are made and recorded as a score, based on stool consistency. At the time of sacrifice on Day 2 (or Day 4) the large intestine is removed and the length and weight recorded. Sections of the colon are taken for either MPO analysis to determine neutrophil infiltration or for histopathology involving scoring to determine disease severity.

[2] = Hepatic microsomal stability; type: in vitro ADME, human; details: for Mean hepatic extraction ratio (Eh) / microsomal CLint at 0.1 μM: human hepatic microsomes, arithmetic mean of two experiments; for microsomal CLint at 0.1 μM: pooled liver microsomes, read-out: Mean intrinsic clearance; for hepatic clearance: summary of Tables 9a and 9b (microsomes and hepatocytes; human, dog, rat)
Method: (§1) Hepatic Microsomal Stability
(§2) • Microsomal stability assays were performed with incubations of test compounds at 0.1 μM (n=2, final DMSO concentration 0.25%), and carried out using pooled human, dog and rat hepatic microsomes from Xenotech (Lots 1210153, 0810143 and 1110042, respectively) at 0.25 mg protein/mL in the presence of co-factor, NADPH. The incubations were performed at 37° C. with 100 μL aliquots taken from the incubation, at 0, 2, 5, 10 and 20 minutes and reactions terminated by addition of 100 μL of acetonitrile containing carbamazepine as analytical internal standard. […] Half-life values were calculated from the relationship
(§3) where λ was the slope of the Ln concentration vs time curve. • The in vitro intrinsic clearance, CIint (mL/min/kg), was calculated and scaled to hepatic extraction ratios using the following scaling parameters and formulae.
(§4) CIint(tissue clearance) mL/min/kg=[0.693/t½(min)]×[1/microsomal protein concentration mg/mL]×[mg microsomes/g liver]×[g liver/kg body weight]
(§5) CIint(hepatic clearance) mL/min/kg=hepatic blood flow×CIint/(hepatic blood flow+CIint)
(§6) Hepatic extraction ratio(Eh)=CIint(hepatic clearance) mL/min/kg/hepatic blood flow(mL/min/kg)

[3] = Hepatic microsomal stability; type: in vitro ADME; details: arithmetic mean of two experiments; for microsomal CLint at 0.1 μM: pooled liver microsomes, read-out: Mean intrinsic clearance
Method: as §1, §2, §3, §4, §5, §6

[4] = Cryopreserved hepatocyte stability; type: in vitro ADME; details: arithmetic mean of two experiments; for hepatocyte CLint at 0.1 μM: read-out: Mean intrinsic clearance
Method: Cryopreserved Hepatocyte Stability
• Hepatocyte stability assays were performed with incubations of test compounds (0.1 μM initial concentration, n=2) carried out with pooled human, dog and rat cryopreserved hepatocytes from Celsis (Lot numbers RRW, KLI and WAP, respectively) at a cell density of 0.5 million cells/mL. The incubations were performed at 37° C. with 100 μL samples taken from the incubation, at 0, 10, 20, 45 and 90 minutes, and reactions terminated by addition of 100 μL of acetonitrile containing carbamazepine as analytical internal standard. […] Half-life values were calculated from the relationship
T1/2(min)=−0.693/λ • where λ was the slope of the Ln concentration vs time curve. • Standard compounds testosterone, midazolam and 4-methylumbelliferone are included in the assay design. These compounds give an indication of the metabolic capacity of the cryopreserved preparations for both Phase I and Phase II reactions. • In vitro intrinsic clearance (CIint), as μL/min/million cells was calculated by applying the following formula to the half-life values:
CIint(Tissue Clearance) mL/min/kg=[0.693/t½(min)]×[1/hepatocyte concentration(million cells/mL)]×[million cells/g liver]×[g liver/kg body weight]
CIint(Hepatic clearance) mL/min/kg=hepatic blood flow×CIint/(hepatic blood flow+CIint)
Hepatic extraction ratio(Eh)=CIint(Hepatic clearance) mL/min/kg/hepatic blood flow(mL/min/kg)

[5] = target: T1, human ether a go-go (hERG) channel (Homo sapiens, UniProt Q12809); test: hERG inhibition (IonWorks patch clamp electrophysiology); type: cell-based; details: maximum final assay concentration 3 μM
T1 construct: a Chinese Hamster Lung cell line stably expressing the full length hERG channel
T1 sequence (Q12809 whole entry): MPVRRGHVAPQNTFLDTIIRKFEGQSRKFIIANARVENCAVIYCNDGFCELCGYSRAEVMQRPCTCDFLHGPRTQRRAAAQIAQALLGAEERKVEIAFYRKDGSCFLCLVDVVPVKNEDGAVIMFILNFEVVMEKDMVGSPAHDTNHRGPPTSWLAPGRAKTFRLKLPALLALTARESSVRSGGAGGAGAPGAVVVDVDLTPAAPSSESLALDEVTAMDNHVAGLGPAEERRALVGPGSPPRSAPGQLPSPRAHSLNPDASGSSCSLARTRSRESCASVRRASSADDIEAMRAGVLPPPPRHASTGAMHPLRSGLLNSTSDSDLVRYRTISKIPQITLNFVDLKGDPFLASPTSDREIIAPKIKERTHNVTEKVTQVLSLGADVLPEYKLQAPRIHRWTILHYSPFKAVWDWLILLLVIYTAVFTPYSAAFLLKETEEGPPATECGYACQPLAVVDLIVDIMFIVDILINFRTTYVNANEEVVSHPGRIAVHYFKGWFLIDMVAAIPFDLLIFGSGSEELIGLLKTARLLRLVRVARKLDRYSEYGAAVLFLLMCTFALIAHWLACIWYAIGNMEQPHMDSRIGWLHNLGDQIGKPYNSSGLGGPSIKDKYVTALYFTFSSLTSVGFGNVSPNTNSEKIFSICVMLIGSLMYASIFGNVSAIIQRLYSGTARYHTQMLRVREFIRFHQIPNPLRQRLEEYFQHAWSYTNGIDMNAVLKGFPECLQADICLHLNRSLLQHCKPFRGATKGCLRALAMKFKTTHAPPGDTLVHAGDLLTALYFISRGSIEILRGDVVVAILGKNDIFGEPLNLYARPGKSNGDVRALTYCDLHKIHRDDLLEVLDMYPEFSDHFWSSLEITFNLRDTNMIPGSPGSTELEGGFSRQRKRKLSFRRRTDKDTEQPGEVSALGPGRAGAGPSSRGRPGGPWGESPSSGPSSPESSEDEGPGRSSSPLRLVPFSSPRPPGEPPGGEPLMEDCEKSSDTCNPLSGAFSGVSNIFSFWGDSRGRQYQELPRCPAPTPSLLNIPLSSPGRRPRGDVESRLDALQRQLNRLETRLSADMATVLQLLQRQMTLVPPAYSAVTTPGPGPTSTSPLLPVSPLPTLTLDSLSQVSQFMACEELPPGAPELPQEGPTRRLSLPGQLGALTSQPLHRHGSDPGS
Method: Eight-point concentration curves were generated using serial 3-fold dilutions from the maximum final assay concentration (3 μM). Electrophysiological recordings were made from a Chinese Hamster Lung cell line stably expressing the full length hERG channel. Single cell ionic currents were measured in the perforated patch clamp configuration (100 μg/mL) amphotericin) at room temperature (21-23° C.) using an IonWorks Quattro instrument. The internal solution contained (mM): 140 KCl, 1 MgCl2, 1 EGTA, 20 HEPES and was buffered to pH 7.3. The external solution contained (mM):138 NaCl, 2.7 KCl, 0.9 CaCl2, 0.5 MgCl2, 8 Na2HPO4, 1.5 KH2PO4, also buffered to pH 7.3. Cells were clamped at a holding potential of −70 mV for 30 s and then stepped to +40 mV for 1 s. This was followed by a hyperpolarising step of 1s to −30 mV to evoke the hERG tail current. This sequence was repeated 5 times at a frequency of 0.25 Hz. Currents were measured from the tail step at the 5th pulse, and referenced to the holding current. Compounds were then incubated for 6-7 minutes prior to a second measurement of the hERG signal using an identical pulse train. Eight-point concentration curves were generated using serial 3-fold dilutions from the maximum final assay concentration (3 μM).

p38 MAPKα = p38 MAPKα (Homo sapiens, UniProt Q16539); test: Enzyme binding assay (Kinomescan); details: read-out: % Inhibition of kinase binding at 500 nM, p38 MAPKα
Chain of p38 MAPKα (Q16539 whole entry): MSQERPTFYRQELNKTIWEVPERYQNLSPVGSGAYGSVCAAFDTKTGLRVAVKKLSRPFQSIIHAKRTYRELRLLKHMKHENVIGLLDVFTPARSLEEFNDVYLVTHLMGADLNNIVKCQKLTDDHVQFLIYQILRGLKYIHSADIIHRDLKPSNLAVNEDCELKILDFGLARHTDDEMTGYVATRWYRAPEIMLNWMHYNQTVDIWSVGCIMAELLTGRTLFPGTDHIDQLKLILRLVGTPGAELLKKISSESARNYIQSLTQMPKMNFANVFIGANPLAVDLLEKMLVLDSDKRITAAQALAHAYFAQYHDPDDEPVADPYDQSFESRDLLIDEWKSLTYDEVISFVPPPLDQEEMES
Method: Enzyme Binding Assays (Kinomescan)
The kinase enzyme binding activities of compounds disclosed herein were determined using a proprietary assay which measures active site-directed competition binding to an immobilized ligand (Fabian, M. A. et al., Nature Biotechnol., 2005, 23:329-336). These assays were conducted by DiscoverX (formerly Ambit; San Diego, Calif.). The percentage inhibition produced by incubation with a test compound is calculated relative to the non-inhibited control.

[6] = human cryopreserved hepatocytes
[7] = pooled cryopreserved hepatocytes, dog cryopreserved hepatocytes
[8] = pooled cryopreserved hepatocytes, rat cryopreserved hepatocytes
[9] = pooled cryopreserved human hepatocytes

SMILES: C#Cc1cc(Nc2nccc(Oc3ccc(NC(=O)Nc4cc(C(C)(C)C)nn4-c4ccc(OC)cc4)c4ccccc34)n2)cc(C(=O)NCCN2CCOCC2)c1 [Example 77, 3-((4-((4-(3-(3-(tert-Butyl)-1-(4-methoxyphenyl)-1H-pyrazol-5-yl)ureido)-naphthalen-1-yl)oxy)pyrimidin-2-yl)amino)-5-ethynyl-N-(2-morpholinoethyl)benzamide]
- IL-1b, IL-6 and IL-8 release from biopsies of UC patients [1]: markedly reduced
- inflammatory cell infiltrate in the reticular and lamina propria zones (BDF1 mice): marked reduction
- activity in the in vivo model of colonic inflammation (histopathology analysis) (BDF1 mice): significant activity
- ulcer grade and epithelial repair compared to the vehicle control (BDF1 mice): marked improvements
- Mean hepatic extraction ratio (Eh) [2]: 0.94
- microsomal CLint at 0.1 μM [2]: 308 µL/min/mg
- hepatic clearance [2]: high hepatic clearance
- Mean hepatic extraction ratio (Eh) ([3]; dog hepatic microsomes): 0.94
- microsomal CLint at 0.1 μM ([3]; dog hepatic microsomes): 189 µL/min/mg
- microsomal CLint at 0.1 μM ([3]; rat hepatic microsomes): 120 µL/min/mg
- Mean hepatic extraction ratio (Eh) ([3]; rat hepatic microsomes): 0.82
- Mean hepatic extraction ratio (Eh) ([4]; dog cryopreserved hepatocytes): 0.87
- Mean hepatic extraction ratio (Eh) [4, 6]: 0.69
- hepatocyte CLint at 0.1 μM [4, 7]: 26 µL/min/1e6 cells
- hepatocyte CLint at 0.1 μM [4, 8]: 12 µL/min/1e6 cells
- hepatocyte CLint at 0.1 μM [4, 9]: 16 µL/min/1e6 cells
- Mean hepatic extraction ratio (Eh) ([4]; rat cryopreserved hepatocytes): 0.55
- IC50 [5]: > 3 µM

SMILES: C#Cc1cc(Nc2nccc(Oc3ccc(NC(=O)Nc4cc(C(C)(C)C)nn4-c4ccc(N(C)C)cc4)c4ccccc34)n2)cc(C(=O)NCCN2CCOCC2)c1 [Example 80, 3-((4-((4-(3-(3-(tert-Butyl)-1-(4-(dimethylamino)phenyl)-1H-pyrazol-5-yl)ureido)naphthalen-1-yl)oxy)pyrimidin-2-yl)amino)-5-ethynyl-N-(2-morpholinoethyl)-benzamide]
- Mean hepatic extraction ratio (Eh) [2]: 0.93
- microsomal CLint at 0.1 μM [2]: 216 µL/min/mg
- hepatic clearance [2]: high hepatic clearance
- Mean hepatic extraction ratio (Eh) ([3]; dog hepatic microsomes): 0.91
- microsomal CLint at 0.1 μM ([3]; dog hepatic microsomes): 146 µL/min/mg
- microsomal CLint at 0.1 μM ([3]; rat hepatic microsomes): 91 µL/min/mg
- Mean hepatic extraction ratio (Eh) ([3]; rat hepatic microsomes): 0.77
- Mean hepatic extraction ratio (Eh) ([4]; dog cryopreserved hepatocytes): 0.73
- Mean hepatic extraction ratio (Eh) [4, 6]: <0.61
- hepatocyte CLint at 0.1 μM [4, 7]: 11 µL/min/1e6 cells
- hepatocyte CLint at 0.1 μM [4, 8]: < 8 µL/min/1e6 cells
- hepatocyte CLint at 0.1 μM [4, 9]: < 11 µL/min/1e6 cells
- Mean hepatic extraction ratio (Eh) ([4]; rat cryopreserved hepatocytes): <0.44
- IC50 [5]: > 3 µM

SMILES: C#Cc1cc(Nc2nccc(Oc3ccc(NC(=O)Nc4cc(C(C)C)nn4-c4ccc(C)cc4)c4ccccc34)n2)cc(C(=O)NCCN2CCOCC2)c1 [Example 46, 3-ethynyl-5-((4-((4-(3-(3-isopropyl-1-(p-tolyl)-1H-pyrazol-5-yl)ureido)naphthalen-1-yl)oxy)pyrimidin-2-yl)amino)-N-(2-morpholinoethyl)benzamide]
- IL-1b, IL-6 and IL-8 release from biopsies of UC patients [1]: markedly reduced
- inflammatory cell infiltrate in the reticular and lamina propria zones (BDF1 mice): marked reduction
- activity in the in vivo model of colonic inflammation (histopathology analysis) (BDF1 mice): significant activity
- ulcer grade and epithelial repair compared to the vehicle control (BDF1 mice): marked improvements

SMILES: COc1cc(Nc2nccc(Oc3ccc(NC(=O)Nc4cc(C(C)C)nn4-c4ccc(C)cc4)c4ccccc34)n2)cc(C(=O)NCCN2CCOCC2)c1 [Example 8, 3-((4-((4-(3-(3-Isopropyl-1-(p-tolyl)-1H-pyrazol-5-yl)ureido)naphthalen-1-yl)oxy)pyrimidin-2-yl)amino)-5-methoxy-N-(2-morpholinoethyl)benzamide]
- inhibition at 0.5 µM (p38 MAPKα): 95%
